Where two headings read alike, the source gives them in different places.
Experiments:
[1] = biological target: AII receptor; assay: Angiotensin II receptor binding (displacement of 3H-AII from rat adrenal cortical microsomes); settings: 50% displacement of specifically bound 3H-AII (2 nM), 1 hour, room temperature
Procedure: The hormone angiotensin II (AII) produces numerous biological responses (e.g. vasoconstriction) through stimulation of its receptors on cell membranes. […] The reaction mixture contained rat adrenal cortical microsomes (source of AII receptor) in Tris buffer and 2 nM of ^3 H-AII with or without potential AII antagonist. This mixture was incubated for 1 hour at room temperature and the reaction was subsequently terminated by rapid filtration and rinsing through glass micro-fibre filter. Receptor-bound ^3 H-AII trapped in filter was quantitated by scintillation counting.

[2] = test system: Renal Hypertensive Rats; assay: Antihypertensive effects in renal hypertensive rats (ligation of the left renal artery); type: in vivo; settings: Rattus norvegicus
Procedure: This procedure increases blood pressure by increasing renin production with consequent elevation of AII levels. Compounds are administered orally and/or intravenously via a cannula in the jugular vein. Arterial blood pressure is continuously measured directly through a carotid artery cannula and recorded using a pressure transducer and a polygraph. Blood pressure levels after treatment are compared to pretreatment levels to determine the antihypertensive effects of the compounds (See Table 5).

[3] = test system: AII; settings: cited from earlier work
[4] = test system: arterial pressure; settings: cited from earlier work
[5] = iv, read-out: Antihypertensive Effects in Renal Hypertensive Rats, Intravenous Activity
[6] = po, read-out: Antihypertensive Effects in Renal Hypertensive Rats, Oral Activity

SMILES | IC50 [1] | minimal effective dose [2, 5] | minimal effective dose [2, 6] | other results
CCCCc1cc(COC)n(Cc2ccc(-c3ccccc3C(=O)O)cc2)n1 [Example 170, 5-Methoxymethyl-3-butyl-1-[(2'-carboxybiphenyl-4-yl)methyl]pyrazole] | 7300 nM | ≤ 10 mg/kg | > 100 mg/kg | 
CCCCc1nnc(CCCC)n1Cc1ccc(-c2ccccc2C(=O)O)cc1 [Example 71, 3,5-Dibutyl-4-[(2'-carboxybiphenyl-4-yl)methyl]-1,2,4-triazole] | 820 nM | ≤ 10 mg/kg | > 100 mg/kg | 
CCc1nnc(COC)n1Cc1ccc(-c2ccccc2C(=O)O)cc1 [Example 70, 3-Ethyl-5-methoxymethyl-4-[(2'-carboxybiphenyl-4-yl)methyl]-1,2,4-triazole] | 5000 nM | ≤ 10 mg/kg | > 100 mg/kg | 
CCCc1ccc(C(=O)OCC)n1Cc1ccc(-c2ccccc2-c2nnn[nH]2)cc1 [Example 277, Ethyl 5-n-propyl-1-[2'-(1H-tetrazol-5-yl)biphenyl-4-yl-methyl]pyrrole-2-carboxylate] | 1600 nM | ≤ 10 mg/kg | ≤ 100 mg/kg | 
CCCc1cc(CO)n(Cc2ccc(-c3ccccc3C(=O)O)cc2)n1 [Example 177, 5-Hydroxymethyl-3-propyl-1-[(2'-carboxybiphenyl-4-yl)methyl]pyrazole] | > 3000 nM | > 30 mg/kg | > 30 mg/kg | 
CCCc1nnc(COC)n1Cc1ccc(-c2ccccc2-c2nnn[nH]2)cc1 [Example 72, 3-Methoxymethyl-5-propyl-4-[(2'-(1H-tetrazol-5-yl)biphenyl-4-yl)methyl]-1,2,4-triazole] | 140 nM | ≤ 10 mg/kg | ≤ 100 mg/kg | 
CCCCc1cnnn1Cc1ccc(-c2ccccc2C(=O)O)cc1 [Example 2] | 1000 nM | ≤ 10 mg/kg | ≤ 100 mg/kg | 
CCCCc1cnnn1Cc1ccc(-c2ccccc2-c2nn[nH]n2)cc1 [Example 4] | 300 nM | ≤ 10 mg/kg | ≤ 100 mg/kg | 
CCCc1cc(COC)nn1Cc1ccc(-c2ccccc2C(=O)O)cc1 [Example 173, 3-Methoxymethyl-5-propyl-1-[(2'-carboxybiphenyl-4-yl)methyl]pyrazole] | 6700 nM | ≤ 10 mg/kg | ≤ 100 mg/kg | 
CCCCc1cn(Cc2ccc(-c3ccccc3-c3nn[nH]n3)cc2)nn1 [Example 3, 4-Butyl-1-[2'-(1H-tetrazol-5-yl)-biphenyl-4-yl]methyl-1,2,3-triazoles] | 6000 nM | ≤ 10 mg/kg | ≤ 100 mg/kg | 
CCCc1cc(COC)n(Cc2ccc(-c3ccccc3C(=O)O)cc2)n1 [Example 174] | > 1000 nM | ≤ 10 mg/kg | > 100 mg/kg | 
CCCc1cc(C(=O)O)nn1Cc1ccc(-c2ccccc2C(=O)O)cc1 [Example 175, 3-Carboxy-5-propyl-1-[(2'-carboxybiphenyl-4-yl)methyl]pyrazole] | 9500 nM | ≤ 10 mg/kg |  | 
CCCc1cc(C=O)n(Cc2ccc(-c3ccccc3C(=O)O)cc2)n1 [Example 179, 5-Formyl-3-propyl-1-[(2'-carboxybiphenyl-4-yl)methyl]pyrazole] | > 3000 nM | > 30 mg/kg | > 30 mg/kg | 
CCCc1nnc(COC)n1Cc1ccc(-c2ccccc2C(=O)O)cc1 [Example 69, 3-Methoxymethyl-5-propyl-4-[(2'-carboxybiphenyl-4-yl)methyl]-1,2,4-triazole] | 730 nM | ≤ 10 mg/kg | > 100 mg/kg | 
CCCc1cc(C=O)nn1Cc1ccc(-c2ccccc2C(=O)O)cc1 [Example 178, 3-Formyl-5-propyl-1-[(2'-carboxybiphenyl-4-yl)methyl]pyrazole] | 4100 nM | ≤ 10 mg/kg | ≤ 100 mg/kg | 
CCCc1ccc(C(=O)OCC)n1Cc1ccc(-c2ccccc2C(=O)O)cc1 [Example 278, Ethyl 5-n-propyl-1-[(2'-carboxybiphenyl-4-yl)methyl]pyrrole-2-carboxylate] | > 3000 nM | > 30 mg/kg | > 30 mg/kg | 
C=CCCc1cc(COC)nn1Cc1ccc(-c2ccccc2C(=O)O)cc1 [Example 172, 3-Methoxymethyl-5-but-3-enyl-1-[(2'-carboxybiphenyl-4-yl)methyl]-pyrazole] | 720 nM | ≤ 10 mg/kg | ≤ 100 mg/kg | 
CCCCc1nncn1Cc1ccc(-c2ccccc2C(=O)O)cc1 [Example 68, 3-Butyl-4-[(2'-carboxybiphenyl-4-yl)methyl]-1,2,4-triazole] | 1800 nM | ≤ 10 mg/kg | > 100 mg/kg | 
CCCc1cc(CO)nn1Cc1ccc(-c2ccccc2C(=O)O)cc1 [Example 176, 3-Hydroxymethyl-5-propyl-1-[(2'-carboxybiphenyl-4-yl)methyl]pyrazole] | 2300 nM | > 30 mg/kg | > 30 mg/kg | 
CCCc1ccc(C(=O)O)n1Cc1ccc(-c2ccccc2C(=O)O)cc1 [Example 279, 5-n-Propyl-1-[(2'-carboxybiphenyl-4-yl)methyl]-pyrrole-2-carboxylic acid] | > 12000 nM | ≤ 10 mg/kg | ≤ 100 mg/kg | 
CCCCc1cn(Cc2ccc(-c3ccccc3C(=O)O)cc2)nn1 [Example 1, 4-Butyl-1-[(2'-carboxybiphenyl-4-yl)methyl]-1,2,3-triazole] | 3000 nM | > 100 mg/kg | > 100 mg/kg | 
CCCCc1cc(COC)nn1Cc1ccc(-c2ccccc2C(=O)O)cc1 [Example 171, 3-Methoxymethyl-5-butyl-1-[(2'-carboxybiphenyl-4-yl)methyl]pyrazole] | 290 nM | ≤ 10 mg/kg | ≤ 100 mg/kg | 
CCCCc1nnc(COC)n1Cc1ccc(-c2ccccc2C(=O)O)cc1 [Example 67, 3-Butyl-5-methoxymethyl-4-[(2'-carboxybiphenyl-4-yl)methyl]-1,2,4-triazole] | 820 nM | ≤ 10 mg/kg | > 100 mg/kg | 
CNCC(=O)N[C@@H](CCCN=C(N)N)C(=O)N[C@H](C(=O)N[C@@H](Cc1ccc(O)cc1)C(=O)N[C@H](C(=O)N[C@@H](Cc1cnc[nH]1)C(=O)N1CCC[C@H]1C(=O)N[C@@H](C)C(=O)O)C(C)C)C(C)C [Saralasin, [Sar^1, Ala^8] AII] |  |  |  | antagonism of the actions of AII ([3]; pithed rats): one of the most potent competitive antagonists of the actions of AII; agonistic actions of its own ([3]; rat, in vivo): possessed agonistic actions of its own; effect when the pressure is not sustained by AII ([4]; due to its agonistic character): generally elicits pressor effects; effect on arterial pressure when the (elevated) pressure is dependent on circulating AII ([4]; mammals and man): lower arterial pressure in mammals and man; effect of oral doses ([4]; oral): ineffective; duration of pharmacological effects ([4]; parenteral administration): relatively short-lasting

From US5043349A, “Substituted pyrrole angiotensin II antagonists” (E. I. Du Pont de Nemours and Company, priority 1990, dated 1991)
